The text below walks through data of patent publication US20080161232A1, “C5a Receptor Antagonist” (JERINI AG, priority 2005, published 2008).

Positions of bridges follow the written chain, without caps; N, C: chain ends. Non-standard residues stand in square brackets, D forms with d. Residues, ends and D or L forms follow the SMILES beside them. *: point of attachment. Phe(4-guanidino) = N=C(N)Nc1ccc(C[C@H](N)C(=O)O)cc1; Decanoyl(3,6,9-trioxa) = COCCOCCOCC(=O)*; Phe(3-F) = N[C@@H](Cc1cccc(F)c1)C(=O)O; Phe(4-Me) = Cc1ccc(C[C@H](N)C(=O)O)cc1; Bta = N[C@@H](Cc1csc2ccccc12)C(=O)O; Hyp = O=C(O)[C@@H]1C[C@@H](O)CN1; d(hLeu) = CC(C)CC[C@@H](N)C(=O)O; 2Pal = N[C@@H](Cc1ccccn1)C(=O)O; NMeN = CN[C@@H](CC(N)=O)C(=O)O; dCha = N[C@H](CC1CCCCC1)C(=O)O; Nle = CCCC[C@H](N)C(=O)O; Orn = NCCC[C@H](N)C(=O)O; Dap = NC[C@H](N)C(=O)O; Moc = COC(=O)*

One assay has as its target T1, human C5aR(CD88) (Homo sapiens, UniProt P21730).
T1 construct: expressed in transfected cells; host or cells: rat basophilic leukemia cells (RBL)
T1 sequence (P21730 1-350): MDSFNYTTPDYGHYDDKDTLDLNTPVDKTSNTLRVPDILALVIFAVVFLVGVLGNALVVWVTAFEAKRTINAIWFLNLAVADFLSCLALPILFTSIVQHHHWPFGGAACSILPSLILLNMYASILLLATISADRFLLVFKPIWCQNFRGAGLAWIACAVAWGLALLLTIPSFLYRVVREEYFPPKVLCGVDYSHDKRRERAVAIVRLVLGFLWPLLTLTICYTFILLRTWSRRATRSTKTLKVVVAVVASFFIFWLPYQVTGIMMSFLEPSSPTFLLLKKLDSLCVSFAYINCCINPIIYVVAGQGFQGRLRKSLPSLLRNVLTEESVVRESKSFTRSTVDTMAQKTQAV
Nature of the assay: Determination of the IC50 value in an enzyme release assay (functional assay, antagonistic activity). Format: cell-based. To be noted: antagonistic activity; IC50 group in enzyme release assay, RBL cells expressing human C5aR(CD88); read-out: activity (group).
In the case of `CC(=O)N[C@@H](Cc1ccccc1)C(=O)N[C@H]1CCCNC(=O)[C@H](Cc2ccc(NC(=N)N)cc2)NC(=O)[C@H](Cc2c[nH]c3ccccc23)NC(=O)[C@@H](CC2CCCCC2)NC(=O)[C@@H]2CCCN2C1=O` [compound 9] (Ac-F[Orn]P[dCha]W[Phe(4-guanidino)]; lactam 2-C), the IC50 lay within 0.2 to 2 µM.
For the compound `NCCC[C@H](NC(=O)[C@H](Cc1ccccc1)NC(=O)CN)C(=O)N1CCC[C@H]1C(=O)N[C@H](CC1CCCCC1)C(=O)N[C@@H](Cc1csc2ccccc12)C(=O)N[C@@H](Cc1ccccc1)C(N)=O` [Compound 345, H-Gly-Phe-Orn-Pro-cha-Bta-Phe-NH2] (H-GF[Orn]P[dCha][Bta]F-NH2), the IC50 lay within 0.05 to 0.2 µM.
Still for that read-out and setting: for `CC(=O)N[C@@H](Cc1ccccc1)C(=O)N[C@H]1CCCNC(=O)[C@H](Cc2ccc(C)cc2)NC(=O)[C@H](Cc2c[nH]c3ccccc23)NC(=O)[C@@H](CC2CCCCC2)NC(=O)[C@@H]2CCCN2C1=O` [Compound 36, Ac-Phe-[Orn-Pro-cha-Trp-Pmf]] (Ac-F[Orn]P[dCha]W[Phe(4-Me)]; lactam 2-C) the value was 0.02 to 0.05 µM.
Turning to `CC(=O)N[C@@H](Cc1ccccc1)C(=O)N[C@@H](CCCN)C(=O)N1CCC[C@H]1C(=O)N[C@H](CC1CCCCC1)C(=O)N[C@@H](Cc1csc2ccccc12)C(=O)N[C@@H](Cc1ccccn1)C(N)=O` [Compound 258, Ac-Phe-Orn-Pro-cha-Bta-Opa-NH2] (Ac-F[Orn]P[dCha][Bta][2Pal]-NH2), the IC50 was in the range of 0.05 to 0.2 µM.
Consider `CC(=O)N[C@@H](Cc1ccccc1)C(=O)N[C@H]1CCCNC(=O)[C@H](CCCNC2=NCCN2)NC(=O)[C@H](Cc2c[nH]c3ccccc23)NC(=O)[C@@H](CC2CCCCC2)NC(=O)[C@@H]2CCCN2C1=O` [Compound 7, Ac-Phe-[Orn-Pro-cha-Trp-Arg(CH2CH2)]], for which the IC50 was 0.2 to 2 µM.
As for `CC(=O)N[C@@H](Cc1ccccc1)C(=O)N[C@H]1CCCNC(=O)[C@H](Cc2ccccc2)NC(=O)[C@H](Cc2csc3ccccc23)NC(=O)[C@@H](CCC(C)C)NC(=O)[C@@H]2C[C@@H](O)CN2C1=O` [Compound 177, Ac-Phe-[Orn-Hyp-hle-Bta-Phe]] (Ac-F[Orn][Hyp][d(hLeu)][Bta]F; lactam 2-C), the IC50 fell in the range of 0.05 to 0.2 µM.
In the case of `CC(=O)N[C@@H](Cc1ccccc1)C(=O)N[C@@H](CCCN)C(=O)N1CCC[C@H]1C(=O)N[C@H](CC1CCCCC1)C(=O)N[C@@H](Cc1csc2ccccc12)C(=O)N[C@@H](Cc1cccc(F)c1)C(N)=O` [Compound 255, Ac-Phe-Orn-Pro-cha-Bta-Mff-NH2] (Ac-F[Orn]P[dCha][Bta][Phe(3-F)]-NH2), the IC50 was 0.01 to 0.02 µM.
Take `CCCC[C@@H]1NC(=O)[C@H](Cc2c[nH]c3ccccc23)NC(=O)[C@@H](CC2CCCCC2)NC(=O)[C@H](CC(N)=O)N(C)C(=O)[C@@H](NC(=O)[C@H](Cc2ccccc2)NC(C)=O)CCCNC1=O` [Compound 184, Ac-Phe-[Orn-NMD-cha-Trp-Nle]] (Ac-F[Orn][NMeN][dCha]W[Nle]; lactam 2-C): the IC50 is 0.05 to 0.2 µM.
Same read-out and setting: for `CC(=O)N[C@@H](Cc1ccccc1)C(=O)N[C@@H](C)C(=O)N1CCC[C@H]1C(=O)N[C@H](CC1CCCCC1)C(=O)N[C@@H](Cc1csc2ccccc12)C(=O)N[C@@H](Cc1ccccc1)C(N)=O` [Compound 206, Ac-Phe-Ala-Pro-cha-Bta-Phe-NH2] (Ac-FAP[dCha][Bta]F-NH2) the value was 0.05 to 0.2 µM.
Regarding `CC(=O)N[C@@H](Cc1ccccc1)C(=O)N[C@@H](CN)C(=O)N1CCC[C@H]1C(=O)N[C@H](CC1CCCCC1)C(=O)N[C@@H](Cc1csc2ccccc12)C(=O)N[C@@H](Cc1ccccc1)C(N)=O` [Compound 216, Ac-Phe-Dap-Pro-cha-Bta-Phe-NH2] (Ac-F[Dap]P[dCha][Bta]F-NH2), the IC50 lay in the range of 0.05 to 0.2 µM.
Still for that read-out and setting: for `COC(=O)N[C@@H](Cc1ccccc1)C(=O)N[C@@H](CCCN)C(=O)N1CCC[C@H]1C(=O)N[C@H](CC1CCCCC1)C(=O)N[C@@H](Cc1csc2ccccc12)C(=O)N[C@@H](Cc1ccccc1)C(N)=O` [Compound 129, Me-O—CO-Phe-Orn-Pro-cha-Bta-Phe-NH2] (Moc-F[Orn]P[dCha][Bta]F-NH2) the value was 0.05 to 0.2 µM; for `CCCC[C@@H]1NC(=O)[C@H](Cc2csc3ccccc23)NC(=O)[C@@H](CCC(C)C)NC(=O)[C@@H]2CCCN2C(=O)[C@@H](NC(=O)[C@H](Cc2ccccc2)NC(C)=O)CCCNC1=O` [Compound 196, Ac-Phe-[Orn-Pro-hle-Bta-Nle]] (Ac-F[Orn]P[d(hLeu)][Bta][Nle]; lactam 2-C), 0.05 to 0.2 µM.
With `CCCC[C@@H]1NC(=O)[C@H](Cc2c[nH]c3ccccc23)NC(=O)[C@@H](CC2CCCCC2)NC(=O)[C@@H]2C[C@@H](OC(=O)COCCOCCOC)CN2C(=O)[C@@H](NC(=O)[C@H](Cc2ccccc2)NC(C)=O)CCCNC1=O` [Compound 5, Ac-Phe-[Orn-Hyp(COCH2OCH2CH2OCH2CH2OCH3)-cha-Trp-Nle]] (Ac-F[Orn][Hyp](Decanoyl(3,6,9-trioxa))[dCha]W[Nle]; lactam 2-C), the IC50 was 0.05 to 0.2 µM.

Staying with this assay, now noted: functional assay of example 11; noteworthy = IC50 less than 200 nM.
For `CC(=O)N[C@@H](Cc1ccccc1)C(=O)N[C@H]1CCCNC(=O)[C@H](Cc2ccc(C)cc2)NC(=O)[C@H](Cc2c[nH]c3ccccc23)NC(=O)[C@@H](CC2CCCCC2)NC(=O)[C@@H]2CCCN2C1=O` [Compound 36, Ac-Phe-[Orn-Pro-cha-Trp-Pmf]] (Ac-F[Orn]P[dCha]W[Phe(4-Me)]; lactam 2-C), the “inhibitory activity (in words)” value is “without significant loss of activity”.

The assay is the same for the next values; noted with them: functional assay of example 11; noteworthy = IC50 less than 200 nM; listed as Ac-Phe-[Orn-Pro-cha-Trp-Pmf].
`CC(=O)N[C@@H](Cc1ccccc1)C(=O)N[C@H]1CCCNC(=O)[C@H](Cc2ccc(C)cc2)NC(=O)[C@H](Cc2c[nH]c3ccccc23)NC(=O)[C@@H](CC2CCCCC2)NC(=O)[C@@H]2CCCN2C1=O` [Compound 36, Ac-Phe-[Orn-Pro-cha-Trp-Pmf]] (Ac-F[Orn]P[dCha]W[Phe(4-Me)]; lactam 2-C): the “inhibitory activity (in words)” value is reported as “noteworthy inhibitory activity”.
